The values below come from article PMC6015222, “Targeting Phosphopeptide Recognition by the Human BRCA1 Tandem BRCT Domain to Interrupt BRCA1-Dependent Signaling” (Cell Chemical Biology, 2018).

In general, IC50 refers to the concentration that inhibits the measured activity by half.

Data set [1] deals with T1, BRCA1 tBRCT (Homo sapiens, UniProt P38398).
T1 construct: BRCA1 tBRCT residues 1646-1859; made in house; host or cells: E. coli BL21(DE3)
Nature of the data set: Competitive MST: inhibition of BACH1 phosphopeptide binding to BRCA1 tBRCT. To be noted: for activity in competitive MST, in words / IC50: BACH1 phosphopeptide vs BRCA1 tBRCT; for IC50: MST, mean ± SD of three experiments, NB, no binding. The method, then: Protein domains used in the assay were labeled with NT-647-NHS fluorescent dye using the Monolith NT™ Protein Labeling Kit (NanoTemper Technologies). Assays were carried out in 20mM Tris buffer, pH 7.4, with 200mM NaCl, 0.05% Tween-20 and 2mM DTT. For the direct binding assay, 10μl of labeled protein at a final concentration of 20nM was mixed with 10μl of test compound and incubated on ice for 10 min. For the competitive assay, 10μl of labeled protein at a final concentration of 20nM was mixed with 2μM cognate peptide substrate at the EC80 concentration determined by prior titration using a 16-point serial dilution by direct-binding MST. For both assays, samples prepared as above were centrifuged at 15000 rpm at 4°C for 10 min and 4μl of the supernatant was loaded into premium glass capillaries (NanoTemper Technologies). MST analysis was performed at MST power of 40% and LED power of 80%, at 22°C temperature using a Monolith NT.115 (NanoTemper Technologies). An initial “Capillary Scan” was performed to scan for fluorescence across the length of the capillary tray to determine the exact position of each capillary before the MST measurement was started. Test compounds were assayed at 16 different concentrations by serial dilution, and data were analysed using NanoTemper analysis software. Kd values were determined using “T-jump + Thermophoresis” settings. The change in thermophoresis between different experimental conditions was expressed as the change in the normalized fluorescence (ΔFnorm), which is defined as Fhot/Fcold (F-values correspond to average fluorescence values between defined areas in the curve under steady-state conditions under control (Fcold) or experimental (Fhot) conditions. Titration of the non-fluorescent ligand causes a gradual change in thermophoresis, which is plotted as ΔFnorm to yield a binding curve, which was then fitted to derive binding constants.

Data set [2] has as its target T1, BRCA1 tBRCT. Briefly: AlphaScreen assay: displacement of cognate biotinylated phosphopeptide from BRCA1 tBRCT. To be noted: 10-point dose response, read-out: IC50, inhibition of binding of cognate phosphopeptide to BRCA1 tBRCT. The method, then:
We tested 6x-Histidine-tagged BRCA1 tBRCT, TOPBP1 tBRCT 7/8 or GRB2 SH2, and their cognate biotinylated peptide substrates. Initial checkerboard titrations were carried out to determine the optimal concentration of protein and peptide for each screen. Assays were conducted in Costar 96-well flat bottom white polystyrene plates using assay buffer (20mM Tris buffer pH 7.4, 200mM NaCl, 0.05% Tween-20, 2mM DTT). 5x-working concentrations of the reagents were dispensed in 10μl each in the order: 6x-Histidine tagged protein, biotinylated peptide, test compound. Plates were incubated at room temperature for 20 min and 10 μl each of nickel chelate AlphaLISA® acceptor beads and AlphaScreen® Streptavidin donor beads (both from Perkin Elmer) at a final concentration of 20 μg/ml were added. Plates were covered with adhesive seals and incubated in the dark for 1 h at 25°C. The AlphaScreen® signal was read using TECAN infinite M1000 Pro microplate reader at excitation wavelength 680nm and emission wavelength 520-620nm. 1% DMSO controls were run in parallel, and used to calculate percent inhibition. A 10-point dose response was performed in triplicate to determine IC50 values for each compound.
In general terms: Alpha assays give light when donor and acceptor beads are brought close together.

Data set [3] in a line: Solubility in aqueous buffers. The class given is physicochemical.
The subject of data set [4] is BRCT domain of poly-ADP ribose polymerase. Further details: method as in Na et al., 2015. The note with it: ref Na et al., 2015; cited from earlier work.
The target in data set [5] is T2, human BRCA1 tandem BRCT domain (residues 1646-1859) (human, UniProt P38398-1 1646-1859, NT-647-NHS fluorescent dye (in the MST assays only)).
T2 construct: BRCA1, human, tandem BRCT domain, residues 1646-1859; Synthetic gene in pET28a, codon optimised for E. coli; No removal of the His tag is described; also called BRCA1 tBRCT; 6x His-BRCA1 tBRCT; source: E. coli BL21(DE3), purified (HisTrap HP, Superdex-75 gel filtration); not shown: His6, N-terminal, kept
T2 sequence (P38398 1646-1859): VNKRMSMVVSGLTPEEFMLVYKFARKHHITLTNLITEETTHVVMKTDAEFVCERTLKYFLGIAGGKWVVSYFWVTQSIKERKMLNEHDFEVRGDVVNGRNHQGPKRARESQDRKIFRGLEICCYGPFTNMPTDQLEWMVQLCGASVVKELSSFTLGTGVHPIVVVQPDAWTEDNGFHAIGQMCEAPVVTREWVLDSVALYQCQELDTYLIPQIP
Nature of the data set: fluorescence polarisation; 75 nM BRCA1 tBRCT and 10 nM TAMRA-labelled BACH1 peptide, with compound at 125 uM; 20 mM Tris pH 7.4, 200 mM NaCl, 0.05% Tween-20, 2 mM DTT; room temperature. The note with it: both partners purified.

Values joined by “and” are separate entries in the source; they are usually repeats but may differ in a detail not shown here. Equal values may be shown once. Non-standard residues stand in square brackets, D forms with d. TAMRA = tetramethylrhodamine label; pS = N[C@@H](COP(=O)(O)O)C(=O)O

T1 sequence (P38398 1646-1859): as above

Consider `Cc1nc2cc(CN3CCN(Cc4ccccc4F)CC3)ccc2[nH]1` [CCBT2908, 5-((4-(2-fluorobenzyl)piperazin-1-yl)methyl)-2-methyl-1H-benzo[d]imidazole], for which the “activity in competitive MST, in words” value on BRCA1 tBRCT [1] is “inactive”.

For `O=C(c1ccc2[nH]c(N3CCOCC3)nc2c1)N1CCN(Cc2ccccc2F)CC1` [CCBT2084, (4-(2-fluorobenzyl)piperazin-1-yl)(2-morpholino-1H-benzo[d]imidazol-5-yl) methanone], the “activity in competitive MST, in words” value at BRCA1 tBRCT [1] is “abrogated activity”.

`Cc1nc2cc(C(=O)N3CCN(Cc4ccccc4F)C[C@@H]3C(C)C)ccc2[nH]1` [CCBT2906] came in with an IC50 at BRCA1 tBRCT [1] of 1.7 µM.

In the case of `Cc1nc2cc(C(=O)N3CCN(Cc4ccccc4F)CC3C(C)C)ccc2[nH]1` (stereo not drawn) [CCBT002, (4-(2-fluorobenzyl)-2-isopropylpiperazin-1-yl) (2-methyl-1H-benzo[d]imidazol-5-yl)methanone], on BRCA1 tBRCT [2], the IC50 stood at 47.3 µM. Besides, the “solubility in aqueous buffers” value in data set [3] is listed as “limited solubility”.

In the case of `Cc1cc2c(C(C)C)c(O)c(O)c(C=O)c2c(O)c1-c1c(C)cc2c(C(C)C)c(O)c(O)c(C=O)c2c1O` [Gossypol], in data set [4], the “binding to the BRCT domain of poly-ADP ribose polymerase” value is “reported to bind”.

As to `CC(C)CN1CCN(C(=O)c2ccc3[nH]c(-c4ccccc4)nc3c2)CC1` [CCBT2047, (4-isobutylpiperazin-1-yl)(2-phenyl-1H-benzo[d]imidazol-5-yl) methanone], the “activity in competitive MST, in words” value at BRCA1 tBRCT [1] is reported as “abolishes activity”.

Regarding `Cc1nc2cc(C(=O)N3CCN(Cc4ccccc4F)CC3)ccc2[nH]1` [CCBT2907, (4-(2-fluorobenzyl)piperazin-1-yl)(2-methyl-1H-benzo[d]imidazol-5-yl)methanone], the IC50 at BRCA1 tBRCT [1] was > 53 µM and ~53 µM.

As to `Cc1nc2cc(C(=O)N3CCN(Cc4ccccc4F)C[C@H]3C(C)C)ccc2[nH]1` [CCBT2905, (R)-(4-(2-fluorobenzyl)-2-isopropylpiperazin-1-yl)(2-methyl-1H-benzo[d]imidazol-5-yl)methanone], the IC50 on BRCA1 tBRCT [1] was found to be 56 µM.

For `CC(C)c1nc2ccc(C(=O)N3CCN(Cc4ccccc4F)CC3)cc2[nH]1` [CCBT2009, (4-(2-fluorobenzyl)piperazin-1-yl) (2-isopropyl-1H-benzo[d]imidazol-6-yl) methanone], the “activity in competitive MST, in words” value at BRCA1 tBRCT [1] is “abrogated activity”.

Regarding `Cc1ccc(CN2CCN(C(=O)c3ccc4nc(-c5ccccc5)[nH]c4c3)CC2)cc1` [CCBT2107, (4-(4-methylbenzyl)piperazin-1-yl)(2-phenyl-1H-benzo[d]imidazol-6-yl)methanone], at BRCA1 tBRCT [1], the IC50 amounted to 0.3 µM.

For the molecule `O=C(c1ccc2nc(-c3ccccc3)[nH]c2c1)N1CCN(Cc2ccc(O)cc2)CC1` [CCBT2106, (4-(4-hydroxybenzyl)piperazin-1-yl)(2-phenyl-1H-benzo[d]imidazole-6-yl)methanone], the IC50 at BRCA1 tBRCT [1] came to 3.6 µM.

As to `O=C(c1ccc2[nH]c(-c3ccncc3)nc2c1)N1CCN(Cc2ccccc2F)CC1` [CCBT2082, (4-(2-fluorobenzyl)piperazin-1-yl)(2-(pyridin-4-yl)-1H-benzo[d]imidazol-5-yl)methanone], the IC50 on BRCA1 tBRCT [1] came out at 0.315 ± 0.18 µM. For the same molecule, the “decrease in activity relative to Bractoppin” value at BRCA1 tBRCT [1] (competitive MST) amounted to 5 fold.

B1: TAMRA-labelled phosphopeptide from BACH1 (TAMRA_GGSRSTpSPTFNK-NH2) (peptide)
peptide: {TAMRA}-GGSRST[pS]PTFNK-NH2
notes: two added glycines before the BACH1 stretch; stretch around the Ser990 phosphosite; the helicase BRIP1 is meant; also called TAMRA-labeled BACH1 peptide; source: synthetic peptide, bought: Designer Bioscience
For the molecule B1, the binding result in data set [5] is given as “binds”.
